Where two headings read alike, the source gives them in different places.
How the values were obtained:
[1] = test system: adult spider mite; assay: Determination of acaricidal activity against adult spider mite (bean leaf spray, 72 h mortality); format: in vivo; details: after 72 hours
Procedure: (§1) According to the solubility of test compounds, the compounds are dissolved in acetone or dimethyl sulfoxide, and then diluted with 0.1% aqueous solution of Tween 80 to form a required concentration of 50 ml test liquid. The content of the acetone or the dimethyl sulfoxide in the total solution is not more than 10%.
The adult spider mites were put into two true leaves of bean plants. After the number of mites was investigated, the solution of certain concentrations of test compounds was sprayed by using a handheld Airbrush. Three replicates were set for each treatment. Then the leaves were maintained in a standard observation room. After 72 hours, the number of surviving mites was observed, and the mortality rate was calculated.

[2] = test system: armyworm; assay: Determination of activity against armyworm (corn leaf dip, third instar, 72 h mortality); format: in vivo; details: foliar; for mortality at 0.1 µg/mL: read-out: Mortality rate (%) 0.1 mg/L
Procedure: as §1, with “liquid,” for “liquid.”
The middle leaves of fresh corns were cut into small sections of 3 cm, and dipped into a solution of the required concentration of test compounds for 10 seconds. After dried in shade, the middle leaves were placed in a 9 cm diameter petri dish provided with filter paper. Fourteen regular healthy test insects (third instar) were put into the leaves. Four replicates were set for each treatment. The pure water treatment was set as control check. The treated discs were placed in a chamber of is 24° C., 60%-70% relative humidity and day light. After 72 hours, the number of surviving insects was investigated, and the mortality rate was calculated.

[3] = test system: diamondback moth; assay: Determination of activity against diamondback moth (cabbage leaf disc dip, second instar, 72 h mortality); format: in vivo; details: Plutella xylostella, foliar, 1 mg/L, read-out: mortality rates against diamondback moth
Procedure: as §1, with “liquid,” for “liquid.”
The leaves of cabbage grown in greenhouse were selected, removed the surface waxy layers, punched into circular leaf discs with a diameter of 2 cm by using a puncher, and dipped into a solution of the required concentration of test compounds for 10 seconds. After dried in shade, the circular leaf discs were placed in a 9 cm diameter petri dish provided with filter paper. Ten regular healthy test insects (second instar) were put into the leaf discs. Four replicates were set for each treatment. The pure water treatment was set as control check. The treated discs were placed in a chamber of 24° C., 60%-70% relative humidity and day light. After 72 hours, the number of surviving insects was investigated, and the mortality rate was calculated.

[4] = test system: beet armyworm; assay: Determination of activity against beet armyworm (cabbage leaf disc spray, third instar, 96 h mortality); format: in vivo; details: after 96 hours
Procedure: as §1, with “liquid,” for “liquid.”
The cabbage leaves were punched into circular leaf discs with a diameter of 1 cm by using a puncher. A certain concentration of test compound was sprayed on both sides of each leaf disc at a spray volume of 0.5 ml by a handheld Airbrush. After the leaf discs were dried in shade, 12 test insects (third instar) were put into the leaf discs. Three replicates were set for each treatment. The pure water treatment was set as control check. The treated discs were placed in a chamber of 24° C., 60%-70% relative humidity and day light. After 96 hours, the number of surviving insects was investigated, and the mortality rate was calculated. See Table 2 for parallel determination results of activity of compounds 1-8 and KC2 (compound 3-1 in U.S. Pat. No. 8,853,440B2) against beet armyworm.

[5] = test system: green peach aphid; assay: Determination of activity against green peach aphid (cabbage leaf spray, 48 h mortality); format: in vivo; details: Myzus persicae, 10 mg/L, read-out: mortality rates against green peach aphid
Procedure: as §1, with “liquid,” for “liquid.”
A layer of filter paper was covered on the bottom of the 6 cm diameter petri dish. To the petri dish, a proper amount of tap water was added dropwise for moisture retention. Cabbage leaves, on which 15-30 aphids exist, with a suitable size (about 3 cm in diameter) were cut from the cabbage plants breeding peach aphids. After winged aphids and the aphids on the front surface of the leaves were removed, the leaves were placed in the petri dish in a manner of backing on to the petri dish, and sprayed with a handheld Airbrush, with a pressure of 10 psi (about 0.7 kg/cm^2) and a spray volume of 0.5 ml, Three replicates were set for each treatment. After treatment, the cabbage leaves were placed in a standard observation room. After 48 hours, the number of surviving aphids was investigated, and the mortality rate was calculated.

[6] = test system: rice leaf folder; assay: Determination of activity against rice leaf folder in field trial (foliar spray, 15 days mortality); format: in vivo; details: after 15 days
Procedure: A certain concentration of test compounds was sprayed on the leaf surfaces in the peak of the hatching period of the rice leaf folders, with a spray volume of 450 L per hectare. The area of a rice plot was 32 square meters. Three replicates were set for each treatment. After 15 days, the number of surviving rice leaf folders was investigated, and the mortality rate was calculated. See Table 3 for parallel determination results of activity of compounds I-8 and KC2 against rice leaf folder.

[7] = test system: housefly larva; assay: Determination of activity against housefly larva (feed poisoning method, third instar, 72 h mortality); format: in vivo; details: after 72 hours
Procedure: Third instar housefly larvae were tested by a feed poisoning method. 1000 mg/L, of acetone solution of the test compounds was diluted into a required concentration of test liquid by using a certain concentration of milk powder emulsion according to a test design dose. The test liquid was uniformly added to a 6 cm diameter petri dish provided with filter paper by using a pipette, with 1 ml per dish. The third instar housefly larvae were put into the petri dish. Three replicates were set for each treatment. Then the petri dishes were maintained in a standard observation room. After 72 hours, the number of surviving housefly larvae was investigated, and the mortality rate was calculated. See Table 5 for parallel determination results of activity of compounds I-51 and KC2 against housefly larva.

[8] = test system: Spodoptera litura; details: 100 ppm; disclosed in WO2005073165A1, US2007275980A1, US20140206727A1; cited from earlier work
[9] = test system: Plutella xylostella; details: 100 ppm; disclosed in WO2005073165A1, US2007275980A1, US20140206727A1; cited from earlier work
[10] = 0.3 mg/L, 72 hours, read-out: mortality rates against armyworm
[11] = 0.1 mg/L, armyworm, 72 hours, parallel determination
[12] = 0.3 mg/L, armyworm, 72 hours, parallel determination, read-out: Mortality rate (%) 0.3 mg/L

SMILES | Mortality rate (%) ([1]; 10 mg/L) | Mortality rate (%) ([1]; 100 mg/L) | Mortality rate (%) ([1]; 600 mg/L) | mortality at 0.3 µg/mL [2, 10] | mortality at 1 µg/mL [3] | other results
O=C(Nc1cccc(C(=O)Nc2ccc(C(F)(C(F)(F)F)C(F)(F)F)cc2)c1F)c1ccc2c(c1)OC(F)(F)O2 [Compound C1] | 0% | 0% | 0% | – | – | –
O=C(Nc1cccc(C(=O)Nc2c(Br)cccc2Br)c1F)c1ccc2c(c1)OC(F)(F)O2 [Compound C2] | 0% | 0% | 0% | – | – | –
O=C(Nc1cccc(C(=O)Nc2c(Br)cc(C(F)(C(F)(F)F)C(F)(F)F)cc2C(F)(F)F)c1F)c1ccc2c(c1)OC(F)(F)O2 [Compound I-2] | – | – | – | > 90% | > 90% | –
O=C(Nc1cccc(C(=O)Nc2c(Br)cc(C(F)(C(F)(F)F)C(F)(F)F)cc2I)c1F)c1ccc2c(c1)OC(F)(F)O2 [Compound I-5, N-(2-bromo-6-iodo-4-perfluoroisopropylphenyl)-3-(2,2-difluoro-1,3-benzodioxole-5-carboxamido)-2-fluorobenzamide] | – | – | – | > 90% | > 90% | –
O=C(Nc1cccc(C(=O)Nc2c(Br)cc(C(F)(C(F)(F)F)C(F)(F)F)cc2Br)c1F)c1ccc2c(c1)OC(F)(F)O2 [Compound I-8] | 93.3% | 100% | 100% | > 90% | > 90% | mortality at 0.1 µg/mL [2, 11]: 100%; mortality at 0.3 µg/mL [2, 12]: 100%; Mortality rate (%) ([4]; 0.2 mg/L): 83.3%; Mortality rate (%) ([4]; 1 mg/L): 91.7%; mortality at 10 µg/mL [5]: > 80%; Mortality rate (%) ([6]; 30 g/ha): 83%; Mortality rate (%) ([6]; 45 g/ha): 85%
CN(C(=O)c1ccc2c(c1)OC(F)(F)O2)c1cccc(C(=O)Nc2c(I)cc(C(F)(C(F)(F)F)C(F)(F)F)cc2I)c1F [Compound I-44] | – | – | – | > 90% | > 90% | –
CN(C(=O)c1ccc2c(c1)OC(F)(F)O2)c1cccc(C(=O)Nc2c(Br)cc(C(F)(C(F)(F)F)C(F)(F)F)cc2C(F)(F)F)c1F [Compound I-45, N-(2-bromo-4-heptafluoroisopropyl-6-trifluoromethylphenyl)-2-fluoro-3-(N-methyl-2,2-difluoro-1,3-benzodioxole-5-carboxamido) Benzamide] | – | – | – | > 90% | > 90% | –
CN(C(=O)c1ccc2c(c1)OC(F)(F)O2)c1cccc(C(=O)Nc2c(Br)cc(C(F)(C(F)(F)F)C(F)(F)F)cc2I)c1F [Compound I-48, N-(2-bromo-6-iodo-4-perfluoroisopropylphenyl)-2-fluoro-3-(N-methyl-2,2-difluoro-1,3-benzodioxole-5-carboxamido)benzamide] | – | – | – | > 90% | > 90% | –
CN(C(=O)c1ccc2c(c1)OC(F)(F)O2)c1cccc(C(=O)Nc2c(Br)cc(C(F)(C(F)(F)F)C(F)(F)F)cc2Br)c1F [Compound I-51, N-(2,6-dibromide-4-heptafluoroisopropylphenyl)-2-fluoro-3-(N-methyl-2,2-difluoro-1,3-benzodioxole-5-carboxamido)benzamide] | – | – | – | > 90% | > 90% | mortality at 0.1 µg/mL [2, 11]: 85.7%; mortality at 0.3 µg/mL [2, 12]: 100%; mortality at 10 µg/mL [5]: > 80%; Mortality rate (%) ([7]; 1 mg/L): 75%; Mortality rate (%) ([7]; 3 mg/L): 90.5%; Mortality rate (%) ([7]; 10 mg/L): 100%
Cc1cc(C(F)(C(F)(F)F)C(F)(F)F)cc(C)c1NC(=O)c1cccc(NC(=O)c2ccc3c(c2)OC(F)(F)O3)c1 [KC1] | 0% | 0% | 0% | – | – | mortality at 0.1 µg/mL ([2]; 72 h): 0%; mortality at 0.3 µg/mL ([2]; 72 h, read-out: Mortality rate (%) 0.3 mg/L): 0%; mortality rates against Spodoptera litura [8]: ≥ 70%; mortality rates against Plutella xylostella [9]: ≥ 70%
CN(C(=O)c1ccccc1)c1cccc(C(=O)Nc2c(Br)cc(C(F)(C(F)(F)F)C(F)(F)F)cc2C(F)(F)F)c1F [KC2, Broflanilide, reference compound] | 0% | 0% | 0% | – | – | Mortality rate (%) ([4]; 0.2 mg/L): 66.7%; Mortality rate (%) ([4]; 1 mg/L): 83.3%; Mortality rate (%) ([6]; 30 g/ha): 79%; Mortality rate (%) ([6]; 45 g/ha): 82%; Mortality rate (%) ([7]; 1 mg/L): 50%; Mortality rate (%) ([7]; 3 mg/L): 69.6%; Mortality rate (%) ([7]; 10 mg/L): 100%
O=C(Nc1cccc(C(=O)Nc2c(Br)cc(C(F)(C(F)(F)F)C(F)(F)F)cc2Br)c1F)c1ccccc1 [KC3] | 0% | 0% | 0% | – | – | mortality at 0.1 µg/mL [2, 11]: 28.6%; mortality at 0.3 µg/mL [2, 12]: 64.3%

From patent publication US11891371B2, “Piperonylic acid derivative and preparation and application thereof” (SHENYANG SINOCHEM AGROCHEMICALS R&D CO., LTD., priority 2017, dated 2024)
